Results reported in US12303845B2, “Method for crystallization of active pharmaceutical ingredients” (Nanoform Finland Oyj, priority 2023, dated 2025).
Each block holds one compound with its values, some of them ahead of it.

Columns and labels:
Format in all cases: physicochemical
[1] = SEM of crystallized suspensions and dried products (crystal size grade, particle size); parameters: key: 5 = nanocrystals; 1 = large crystals
Method: SEM images were captured using the Zeiss Sigma 300 VP SEM instruments. Samples were dispersed into water and filtered with 0.1 μm filter. Filters were dried, transferred to SEM sample holders, and coated with a 5 nm thick layer of platinum. Amorphous API nanoparticles (budesonide, ezetimibe, ceritinib, and apalutamide) were added as dry powders to aqueous polymer solutions. The mixtures were either • (i) mixed with a magnetic stirrer and ultrasonicated until API was completely surrounded by water (wetted). The stirring was continued for 16-24 h at ambient temperature or • (ii) blended with a metal spatula and allowed to stay at room temperature for 18-24 h. The suspensions formed were analyzed after 18-24 h. SEM and XRD samples were prepared as described above. Suspension comprising nanosized APIs prepared as shown above were dried in a vacuum desiccator overnight. The solid materials were grounded to produce powders. The powders were analyzed on XRD and SEM. The powders comprising nanosized APIs were used in the stability, permeability, and dissolution tests as described above.

[2] = Stability tests of solid material (SEM, XRD, HPLC); conditions: materials prepared according to the disclosure; up to T30; crystallinity confirmed by XRD
Method: Solid material was weighted in separate vials (approx. 150 mg of material in each) and transferred to stability chambers. Three conditions were applied: ambient conditions (material in closed vial at RT), 25° C./65% RH and 40° C./75% RH. Material was analyzed at T0 as freshly prepared, T7 ([…]), T14 ([…]) and T30 (30 d) after the initiation of stability studies. SEM, XRD and dissolution/permeability studies were used to evaluate the crystallinity, particle size/morphology and performance of the material.

[3] = Crystallization of amorphous nanosized API in aqueous polymer solution, polymorph/crystallinity by XRD; parameters: key to Polymorph: bulk = same as the API before conversion to amorphous nanoparticles
Method: XRPD measurements were carried out using the Malvern PANalytical Empyrean X-ray diffractometer equipped with a Cu Kα (1.54 Å) source, MultiCore optics and a solid-state PIXcel3D detector. By using Kapton tape the samples were attached onto aluminum or polycrystalline silicon sample holders. Dried slurries were measured without further sample preparation under Kapton tape and suspensions were filtered, dried, and filters were attached with double sided tape. The samples were measured in the reflection geometry in a spinning measurement stage. The measurement range was 5-40 (°2θ). The step size and time per step values were varied depending on the counts per second obtained.
Determination of crystallization of API nanoparticles was evaluated via kinetic study of suspension. Accordingly, XRD measurement was done for suspension in different time points.
Amorphous API nanoparticles (budesonide, ezetimibe, ceritinib, and apalutamide) were added as dry powders to aqueous polymer solutions. The mixtures were either • (i) mixed with a magnetic stirrer and ultrasonicated until API was completely surrounded by water (wetted). The stirring was continued for 16-24 h at ambient temperature or • (ii) blended with a metal spatula and allowed to stay at room temperature for 18-24 h.
The suspensions formed were analyzed after 18-24 h. SEM and XRD samples were prepared as described above.

[4] = HPMC 1 wt.-%, SLS 0.2 wt.-%, mAPI 25 mg/g
[5] = HPMC 1 wt.-%, no SLS, mAPI 25 mg/g
[6] = HPMC 2.5 wt.-%, SLS 0.2 wt.-%, mAPI 25 mg/g
[7] = HPMC 2.5 wt.-%, no SLS, mAPI 25 mg/g
[8] = HPMC 5 wt.-%, SLS 0.2 wt.-%, mAPI 25 mg/g
[9] = HPMC 5 wt.-%, SLS 0.2 wt.-%, mAPI 100 mg/g
[10] = HPMC 5 wt.-%, SLS 0.2 wt.-%, mAPI 150 mg/g
[11] = HPMC 5 wt.-%, no SLS, mAPI 25 mg/g
[12] = HPMC 5 wt.-%, no SLS, mAPI 100 mg/g
[13] = HPMC 5 wt.-%, no SLS, mAPI 150 mg/g
[14] = PVP K30 1 wt.-%, no SLS, mAPI 25 mg/g
[15] = PVP K30 2.5 wt.-%, no SLS, mAPI 25 mg/g
[16] = PVP K30 5 wt.-%, no SLS, mAPI 25 mg/g
[17] = PVPVA 1 wt.-%, SLS 0.2 wt.-%, mAPI 25 mg/g
[18] = PVPVA 1 wt.-%, no SLS, mAPI 25 mg/g polymer solution
[19] = PVPVA 2.5 wt.-%, SLS 0.2 wt.-%, mAPI 25 mg/g
[20] = PVPVA 2.5 wt.-%, no SLS, mAPI 25 mg/g
[21] = PVPVA 5 wt.-%, SLS 0.2 wt.-%, mAPI 25 mg/g
[22] = PVPVA 5 wt.-%, no SLS, mAPI 25 mg/g
[23] = PVPVA 15 wt.-%, SLS 0.2 wt.-%, mAPI 150 mg/g
[24] = PVPVA 15 wt.-%, no SLS, mAPI 150 mg/g
[25] = PVPVA 20 wt.-%, no SLS, mAPI 200 mg/g
[26] = PVPVA 25 wt.-%, SLS 0.2 wt.-%, mAPI 250 mg/g
[27] = PVPVA 25 wt.-%, no SLS, mAPI 250 mg/g
[28] = PVPVA 45 wt.-%, no SLS, mAPI 450 mg/g
[29] = Poloxamer 407 1 wt.-%, no SLS, mAPI 25 mg/g
[30] = Poloxamer 407 2.5 wt.-%, no SLS, mAPI 25 mg/g
[31] = Poloxamer 407 5 wt.-%, no SLS, mAPI 25 mg/g
[32] = HPMC 5 wt.-%, SLS 0.2 wt.-%, mAPI 200 mg/g
[33] = PVPVA 10 wt.-%, SLS 0.2 wt.-%, mAPI 25 mg/g
[34] = PVPVA 10 wt.-%, no SLS, mAPI 25 mg/g
[35] = PVPVA 25 wt.-%, SLS 0.2 wt.-%, mAPI 500 mg/g
[36] = PVPVA 25 wt.-%, no SLS, mAPI 500 mg/g
[37] = PVPVA 45 wt.-%, SLS 0.2 wt.-%, mAPI 450 mg/g
[38] = Poloxamer 407 1 wt.-%, SLS 0.2 wt.-%, mAPI 25 mg/g
[39] = Poloxamer 407 2.5 wt.-%, SLS 0.2 wt.-%, mAPI 25 mg/g
[40] = Poloxamer 407 5 wt.-%, SLS 0.2 wt.-%, mAPI 25 mg/g
[41] = Poloxamer 407 15 wt.-%, SLS 0.2 wt.-%, mAPI 150 mg/g
[42] = Poloxamer 407 15 wt.-%, SLS 0.2 wt.-%, mAPI 300 mg/g
[43] = Poloxamer 407 15 wt.-%, SLS 0.2 wt.-%, mAPI 450 mg/g
[44] = Poloxamer 407 15 wt.-%, no SLS, mAPI 150 mg/g
[45] = Poloxamer 407 15 wt.-%, no SLS, mAPI 300 mg/g
[46] = Poloxamer 407 15 wt.-%, no SLS, mAPI 450 mg/g

- Grade (SEM, visual inspection) [1, 4]: 5
- Grade (SEM, visual inspection) [1, 5]: 5
- Grade (SEM, visual inspection) [1, 6]: 5
- Grade (SEM, visual inspection) [1, 7]: 5
- Grade (SEM, visual inspection) [1, 8]: 5
- Grade (SEM, visual inspection) [1, 9]: 5
- Grade (SEM, visual inspection) [1, 10]: 5
- Grade (SEM, visual inspection) [1, 11]: 5
- Grade (SEM, visual inspection) [1, 12]: 5
- Grade (SEM, visual inspection) [1, 13]: 5
- Grade (SEM, visual inspection) [1, 14]: 3
- Grade (SEM, visual inspection) [1, 15]: 3
- Grade (SEM, visual inspection) [1, 16]: 3
- Grade (SEM, visual inspection) [1, 17]: 4
- Grade (SEM, visual inspection) [1, 18]: 3
- Grade (SEM, visual inspection) [1, 19]: 4
- Grade (SEM, visual inspection) [1, 20]: 2
- Grade (SEM, visual inspection) [1, 21]: 4
- Grade (SEM, visual inspection) [1, 22]: 2
- Grade (SEM, visual inspection) [1, 23]: 5
- Grade (SEM, visual inspection) [1, 24]: 5
- Grade (SEM, visual inspection) [1, 25]: 5
- Grade (SEM, visual inspection) [1, 26]: 5
- Grade (SEM, visual inspection) [1, 27]: 5
- Grade (SEM, visual inspection) [1, 28]: 5
- Grade (SEM, visual inspection) [1, 29]: 1
- Grade (SEM, visual inspection) [1, 30]: 1
- Grade (SEM, visual inspection) [1, 31]: 1
- Stability of nanocrystalline material over the stability study [2]: stable over the whole stability study
- Polymorph [3, 4]: bulk
- Polymorph [3, 5]: bulk
- Polymorph [3, 6]: bulk
- Polymorph [3, 7]: bulk
- Polymorph [3, 8]: bulk
- Polymorph [3, 9]: bulk
- Polymorph [3, 10]: bulk
- Polymorph [3, 11]: bulk
- Polymorph [3, 12]: bulk
- Polymorph [3, 13]: bulk
- Polymorph [3, 14]: bulk
- Polymorph [3, 15]: bulk
- Polymorph [3, 16]: bulk
- Polymorph [3, 17]: bulk
- Polymorph [3, 18]: bulk
- Polymorph [3, 19]: bulk
- Polymorph [3, 20]: bulk
- Polymorph [3, 21]: bulk
- Polymorph [3, 22]: bulk
- Polymorph [3, 23]: bulk
- Polymorph [3, 24]: bulk
- Polymorph [3, 25]: bulk
- Polymorph [3, 26]: bulk
- Polymorph [3, 27]: bulk
- Polymorph [3, 28]: bulk
- Polymorph [3, 29]: bulk
- Polymorph [3, 30]: buik
- Polymorph [3, 31]: bulk
SMILES: CCCC1O[C@@H]2C[C@H]3[C@@H]4CCC5=CC(=O)C=C[C@]5(C)[C@H]4[C@@H](O)C[C@]3(C)[C@]2(C(=O)CO)O1 (stereo partly drawn) [Bude, budesonide]

- Grade (SEM, visual inspection) [1, 4]: 5
- Grade (SEM, visual inspection) [1, 5]: 5
- Grade (SEM, visual inspection) [1, 6]: 5
- Grade (SEM, visual inspection) [1, 7]: 4
- Grade (SEM, visual inspection) [1, 9]: 5
- Grade (SEM, visual inspection) [1, 10]: 5
- Grade (SEM, visual inspection) [1, 32]: 5
- Grade (SEM, visual inspection) [1, 17]: 4
- Grade (SEM, visual inspection) [1, 18]: 4
- Grade (SEM, visual inspection) [1, 19]: 4
- Grade (SEM, visual inspection) [1, 20]: 4
- Grade (SEM, visual inspection) [1, 21]: 4
- Grade (SEM, visual inspection) [1, 22]: 4
- Grade (SEM, visual inspection) [1, 33]: 5
- Grade (SEM, visual inspection) [1, 34]: 4
- Grade (SEM, visual inspection) [1, 25]: 5
- Grade (SEM, visual inspection) [1, 35]: 5
- Grade (SEM, visual inspection) [1, 27]: 5
- Grade (SEM, visual inspection) [1, 36]: 5
- Grade (SEM, visual inspection) [1, 37]: 5
- Grade (SEM, visual inspection) [1, 28]: 5
- Grade (SEM, visual inspection) [1, 38]: 2
- Grade (SEM, visual inspection) [1, 29]: 2
- Grade (SEM, visual inspection) [1, 39]: 2
- Grade (SEM, visual inspection) [1, 30]: 2
- Grade (SEM, visual inspection) [1, 40]: 2
- Grade (SEM, visual inspection) [1, 31]: 2
- Grade (SEM, visual inspection) [1, 41]: 1
- Grade (SEM, visual inspection) [1, 42]: 1
- Grade (SEM, visual inspection) [1, 43]: 1
- Grade (SEM, visual inspection) [1, 44]: 1
- Grade (SEM, visual inspection) [1, 45]: 1
- Grade (SEM, visual inspection) [1, 46]: 1
- Polymorph [3, 4]: new
- Polymorph [3, 5]: new
- Polymorph [3, 6]: new
- Polymorph [3, 7]: new
- Polymorph [3, 9]: new
- Polymorph [3, 10]: new
- Polymorph [3, 32]: new
- Polymorph ([3]; HPMC 5 wt.-%, SLS 0.2 wt.-%, mAPI 250 mg/g): new
- Polymorph ([3]; HPMC 5 wt.-%, SLS 0.2 wt.-%, mAPI 300 mg/g): new
- Polymorph [3, 12]: amorphous
- Polymorph [3, 17]: new
- Polymorph [3, 18]: new
- Polymorph [3, 19]: new
- Polymorph [3, 20]: new
- Polymorph [3, 21]: new
- Polymorph [3, 22]: new
- Polymorph [3, 33]: new
- Polymorph [3, 34]: new
- Polymorph ([3]; PVPVA 15 wt.-%, no SLS, mAPI 450 mg/g): amorphous
- Polymorph ([3]; PVPVA 15 wt.-%, no SLS, mAPI 600 mg/g): amorphous
- Polymorph [3, 25]: new
- Polymorph ([3]; PVPVA 20 wt.-%, no SLS, mAPI 600 mg/g): amorphous
- Polymorph [3, 35]: new
- Polymorph [3, 27]: new
- Polymorph [3, 36]: new
- Polymorph [3, 37]: new
- Polymorph [3, 28]: new
- Polymorph [3, 38]: Form B
- Polymorph [3, 29]: Form B
- Polymorph [3, 39]: Form B
- Polymorph [3, 30]: Form B
- Polymorph [3, 40]: Form B
- Polymorph [3, 31]: Form B
- Polymorph [3, 41]: Form B
- Polymorph [3, 42]: Form B
- Polymorph [3, 43]: Form B
- Polymorph [3, 44]: Form B
- Polymorph [3, 45]: Form B
- Polymorph [3, 46]: Form B
SMILES: CNC(=O)c1ccc(N2C(=S)N(c3cnc(C#N)c(C(F)(F)F)c3)C(=O)C23CCC3)cc1F [Apa, apalutamide]
